Test results: ChEMBL document CHEMBL5543068, “Mitochondrial targeting derivatives of honokiol enhanced selective antitumor activity in NCI-H446 cells and decreased in vivo toxicity in Caenorhabditis elegans” (Eur J Med Chem, 2024)

How the values were obtained:
[1] = tested on: A549; test: Antiproliferative activity against human A549 cells assessed as reduction in cell viability incubated for 48 hrs by MTT assay; type: functional, cell-based; details: A549, 48 h
[2] = Cytotoxicity against human HL7702 cells assessed as reduction in cell viability incubated for 48 hrs by MTT assay; type: toxicity, cell-based; details: HL7702 (L02) cells
[3] = Cytotoxicity against HBE (human bronchial epithelial) cells assessed as reduction in cell viability incubated for 48 hrs by MTT assay; type: toxicity, cell-based
[4] = tested on: HepG2; test: Antiproliferative activity against human HepG2 cells assessed as reduction in cell viability incubated for 48 hrs by MTT assay; type: functional, cell-based; details: HepG2, 48 h
[5] = tested on: NCI-H446; test: Antiproliferative activity against human NCI-H446 cells assessed as reduction in cell viability incubated for 48 hrs by MTT assay; type: functional, cell-based; details: NCI-H446, 48 h

SMILES | IC50 [1] | IC50 at 48 h [2] | IC50 at 48 h [3] | IC50 [4] | IC50 [5]
C=CCc1ccc(OCCCCCCCCCCOC(=O)Cc2c3[n+](cc4c(OC)c(OC)ccc24)CCc2cc4c(cc2-3)OCO4)c(-c2ccc(OC)c(CC=C)c2)c1 | 1.88 µM | 5 µM | 5.83 µM | 1.94 µM | 3.01 µM
COc1ccc2cc3[n+](cc2c1OC)CCc1cc2c(cc1-3)OCO2 [BERBERINE CHLORIDE] | > 50 µM | > 50 µM | > 50 µM | > 50 µM | > 50 µM
C=CCc1ccc(OCCCOC(=O)Cc2c3[n+](cc4c(OC)c(OC)ccc24)CCc2cc4c(cc2-3)OCO4)c(-c2ccc(OCCC)c(CC=C)c2)c1 | 5.82 µM | 2.6 µM | 9.5 µM | 3.87 µM | 3.74 µM
C=CCc1ccc(OCCCCCCCCCCOC(=O)Cc2c3[n+](cc4c(OC)c(OC)ccc24)CCc2cc4c(cc2-3)OCO4)c(-c2ccc(OCCC)c(CC=C)c2)c1 | 4.32 µM | 3.96 µM | 17.5 µM | 4.16 µM | 5.45 µM
C[n+]1ccc(/C=C/c2c[nH]c3ccccc23)cc1 | > 60 µM | > 60 µM | > 60 µM | > 60 µM | > 60 µM
C=CCc1ccc(OC)c(-c2ccc(OC(=O)Cc3c4[n+](cc5c(OC)c(OC)ccc35)CCc3cc5c(cc3-4)OCO5)c(CC=C)c2)c1 | 5.5 µM | 4.21 µM | 16.1 µM | 2.85 µM | 4.72 µM
C=CCc1ccc(OCCC)c(-c2ccc(OCCCCCCOC(=O)Cc3c4[n+](cc5c(OC)c(OC)ccc35)CCc3cc5c(cc3-4)OCO5)c(CC=C)c2)c1 | 1.59 µM | 4.28 µM | 3.59 µM | 1.38 µM | 1.56 µM
C=CCc1ccc(OCCC)c(-c2ccc(OCCCCCCCCCCOC(=O)Cc3c4[n+](cc5c(OC)c(OC)ccc35)CCc3cc5c(cc3-4)OCO5)c(CC=C)c2)c1 | 6.21 µM | 4.39 µM | 10.7 µM | 7.89 µM | 7.87 µM
CCCCCCOC(=O)Cc1c2[n+](cc3c(OC)c(OC)ccc13)CCc1cc3c(cc1-2)OCO3 | 6.11 µM | 19 µM | 10.6 µM | > 10 µM | 13 µM
C=CCc1ccc(OCCCCCC[n+]2ccc(/C=C/c3c[nH]c4ccccc34)cc2)c(-c2ccc(OC)c(CC=C)c2)c1 | 2.54 µM | 3.88 µM | 6.17 µM | 1.79 µM | 2.7 µM
CCCCCCCCCCCCc1c2[n+](cc3c(OC)c(OC)ccc13)CCc1cc3c(cc1-2)OCO3 | 0.86 µM | 2.78 µM | 1.23 µM | 2.72 µM | 0.65 µM
CCCCCCCCCCc1c2[n+](cc3c(OC)c(OC)ccc13)CCc1cc3c(cc1-2)OCO3 | 1.18 µM | 3.8 µM | 1.52 µM | 13.3 µM | 0.83 µM
C=CCc1ccc(OCCC)c(-c2ccc(OCCCCCCCCCC[n+]3ccc(/C=C/c4c[nH]c5ccccc45)cc3)c(CC=C)c2)c1 | 9.45 µM | 12.3 µM | 16.5 µM | 8.13 µM | 6.51 µM
C=CCc1ccc(OCCCCCC[n+]2ccc(/C=C/c3c[nH]c4ccccc34)cc2)c(-c2ccc(OCCC)c(CC=C)c2)c1 | 4.93 µM | 2.34 µM | 11.1 µM | 2.35 µM | 3.28 µM
C=CCc1ccc(OC)c(-c2ccc(OCCCCCC[n+]3ccc(/C=C/c4c[nH]c5ccccc45)cc3)c(CC=C)c2)c1 | 3.38 µM | 3.56 µM | 20.4 µM | 2.68 µM | 3.02 µM
C=CCc1ccc(OC(=O)Cc2c3[n+](cc4c(OC)c(OC)ccc24)CCc2cc4c(cc2-3)OCO4)c(-c2ccc(OC)c(CC=C)c2)c1 | 5.52 µM | 5 µM | 8.14 µM | 2.67 µM | 3.22 µM

SMILES | IC50 [1] | IC50 at 48 h [2] | IC50 at 48 h [3] | IC50 [4] | IC50 [5]
C=CCc1ccc(OCCC[n+]2ccc(/C=C/c3c[nH]c4ccccc34)cc2)c(-c2ccc(OCCC)c(CC=C)c2)c1 | 1.69 µM | 1.77 µM | 9.47 µM | 1.14 µM | 1.74 µM
CCCCCCCCc1c2[n+](cc3c(OC)c(OC)ccc13)CCc1cc3c(cc1-2)OCO3 | 1.72 µM | 14.7 µM | 0.79 µM | 18.7 µM | 2.65 µM
C=CCc1ccc(OCCCCCCCCCC[n+]2ccc(/C=C/c3c[nH]c4ccccc34)cc2)c(-c2ccc(OCCC)c(CC=C)c2)c1 | 8.07 µM | 6.98 µM | 17.3 µM | 5.23 µM | 7.57 µM
C=CCc1ccc(OC)c(-c2ccc(OCCC[n+]3ccc(/C=C/c4c[nH]c5ccccc45)cc3)c(CC=C)c2)c1 | 5.32 µM | 8.12 µM | 20.4 µM | 4.53 µM | 6.34 µM
C=CCc1ccc(OC)c(-c2ccc(OCCCCCCCCCCOC(=O)Cc3c4[n+](cc5c(OC)c(OC)ccc35)CCc3cc5c(cc3-4)OCO5)c(CC=C)c2)c1 | 2.7 µM | 2.01 µM | 5.01 µM | 2.4 µM | 1.57 µM
CCCCCCCCCCOC(=O)Cc1c2[n+](cc3c(OC)c(OC)ccc13)CCc1cc3c(cc1-2)OCO3 | 1.53 µM | 3.83 µM | 4.35 µM | 4.23 µM | 1.72 µM
CCCOC(=O)Cc1c2[n+](cc3c(OC)c(OC)ccc13)CCc1cc3c(cc1-2)OCO3 | 15.9 µM | > 30 µM | > 30 µM | > 30 µM | > 10 µM
C=CCc1ccc(OC(=O)Cc2c3[n+](cc4c(OC)c(OC)ccc24)CCc2cc4c(cc2-3)OCO4)c(-c2ccc(OCCC)c(CC=C)c2)c1 | 4.12 µM | 3.8 µM | 7.08 µM | 2.23 µM | 5.17 µM
C=CCc1ccc(OCCC[n+]2ccc(/C=C/c3c[nH]c4ccccc34)cc2)c(-c2ccc(OC)c(CC=C)c2)c1 | 3.27 µM | 4.62 µM | 9.84 µM | 1.75 µM | 3.29 µM
C=CCc1ccc(OCCC)c(-c2ccc(OCCCOC(=O)Cc3c4[n+](cc5c(OC)c(OC)ccc35)CCc3cc5c(cc3-4)OCO5)c(CC=C)c2)c1 | 3.5 µM | 3.39 µM | 6.7 µM | 2.23 µM | 2.44 µM
C=CCc1ccc(OCCC)c(-c2ccc(OC(=O)Cc3c4[n+](cc5c(OC)c(OC)ccc35)CCc3cc5c(cc3-4)OCO5)c(CC=C)c2)c1 | 5.98 µM | 3.39 µM | 17.9 µM | 3.02 µM | 5.06 µM
C=CCc1ccc(OC)c(-c2ccc(OCCCCCCCCCC[n+]3ccc(/C=C/c4c[nH]c5ccccc45)cc3)c(CC=C)c2)c1 | 10.6 µM | 7.09 µM | 13.5 µM | 2.73 µM | 5.21 µM
C=CCc1ccc(OCCCCCCCCCC[n+]2ccc(/C=C/c3c[nH]c4ccccc34)cc2)c(-c2ccc(OC)c(CC=C)c2)c1 | 5.69 µM | 4.03 µM | 7.47 µM | 3.37 µM | 3.01 µM
C=CCc1ccc(OCCCOC(=O)Cc2c3[n+](cc4c(OC)c(OC)ccc24)CCc2cc4c(cc2-3)OCO4)c(-c2ccc(OC)c(CC=C)c2)c1 | > 10 µM | 6.5 µM | 19.4 µM | 6.6 µM | 7.08 µM
C=CCc1ccc(OC)c(-c2ccc(OCCCCCCOC(=O)Cc3c4[n+](cc5c(OC)c(OC)ccc35)CCc3cc5c(cc3-4)OCO5)c(CC=C)c2)c1 | 2.87 µM | 4.37 µM | 5.09 µM | 1.74 µM | 1.4 µM
